Test results: paper PMC5321639, “Design and pharmacodynamics of recombinant NZ2114 histidine mutants with improved activity against methicillin-resistant Staphylococcus aureus” (AMB Express, 2017)
≈ marks a conversion by molar mass, not a printed value. Read-outs that look alike come from different tables or passages of the source. Each block holds one compound with its values, some of them ahead of it. Where a SMILES comes first, the peptide text is derived from it. Bridges are numbered along the chain shown (N, C = ends).

How the values were obtained:
[1] = tested on: S. aureus ATCC43300 (MRSA); assay: Time-kill curve assay; format: cell-based, Staphylococcus aureus; details: for time for bacterial counts to decrease to 2 log10 CFU/ml (a 99.9% reduction): start 1 × 10^5 CFU/ml, 37 °C, triplicate
Method: Bacterial culture (S. aureus ATCC43300) was diluted to 1 × 10^5 CFU/ml and H1, H2, and H3 were added. […] The mixture was cultivated at 250 rpm, 37 °C. The 100-µl samples were taken from each flask at 0, 2, 4, 6, 8, 12 and 24 h of incubation, and serial dilutions of samples were plated to count visible colonies. Vancomycin was tested in the same way as a positive control and the culture without antimicrobial agent as a negative control (Xiong et al. [2011]). All experiments were performed in triplicate.

[2] = tested on: S. aureus ATCC43300; assay: Effect of proteinases on activity (MIC); format: cell-based, Staphylococcus aureus; details: 1:10 w/w proteinase:peptide, 37 °C for 3 h, then MIC assay
Method: (§1) The peptide solutions were diluted twofold with the range of final concentrations were 0.015–32 µg/ml (0.003–7.273 µM) for purified H1, H2, H3, H6, and H8. The test strains were grown in MHB medium at 37 °C to an OD600 of 0.4 and diluted to 1 × 10^5 CFU/ml. The 10 µl peptide and 90 µl cell suspension were added into each well. All assays were performed in triplicate. The antimicrobial activity of NZ2114 and vancomycin were tested as positive controls. The plates were incubated at 37 °C for 18–24 h. MIC was defined as the lowest peptide concentration of ones at which there was no visible growth (Tian et al. [2009]).
(§2) The effect of pH, temperature, NaCl concentration and proteinase on the activity of peptides was evaluated. Peptides were diluted twofold, then adjusted to a pH range from 2.0 to 10.0 and incubated at 37 °C for 4 h. The thermal stability of purified peptides was determined after 1-h incubation of peptides at 4, 20, 40, 60, 80 and 100 °C in deionized water, respectively. Aliquots of peptides were incubated in various proteinases solutions [pepsin (pH 2.0), trypsin (pH 8.0), proteinase K (pH 7.0)] at a ratio of 1:10, w/w (proteinase: peptide) at 37 °C for 3 h. For the ion stability, peptides were incubated in 50, 100, 200, 300, 400, 500 mM sodium chloride solutions, respectively. Other methods and conditions were prepared as the MIC assay described above (Li et al. [2015]; Qu et al. [2016]).

[3] = tested on: S. aureus ATCC43300; assay: Postantibiotic effect (PAE); format: cell-based, Staphylococcus aureus; details: 2 h exposure at 37 °C, 1 × 10^8 CFU/ml, drug removed by 1:10^3 dilution, mean ± SD, n = 3
Method: After 2 h, the drug was removed by diluting 1:10^3 into the MHB and incubated at 37 °C, 250 rpm. The sample was taken to plate counting every 1 h until the bacterial cultures become turbid. The PAE was calculated by the following formula: PAE = T − C, where T is the time needed for the count of CFU in the test culture to increase 1 log10 (10-fold) above the 0 h and C is the time needed for the count of CFU in the untreated control culture to increase 1 log10 above the 0 h (Giguère et al. [2012]).

[4] = tested on: S. aureus ATCC43300; assay: Effect of NaCl concentration on activity (MIC); format: cell-based, Staphylococcus aureus
Method: as §1, §2

[5] = tested on: S. aureus ATCC43300; assay: microbe, parasite or virus in culture; format: cell-based, Staphylococcus aureus; details: for MICc (MIC of the most effective combination): checkerboard; for MIC: read-out: MICa (MIC of drug alone); for FIC: MICc/MICa
Method: The MIC values of four antibiotics (vancomycin, ampicillin, rifampicin and ciprofloxacin) to S. aureus ATCC43300 were tested as the MIC assay described above. The peptide solutions and antibiotics were diluted twofold with the final concentrations ranging from 1/16 to 8× MIC, and added into 96-well plates in a checkerboard fashion (White et al. [1996]). The results of combination were evaluated by calculating the fractional inhibitory concentration index (FICI) of each combination. FIC of H1, H2, H3=MIC of H1, H2, H3, respectively, in combination with antibiotic/MIC of H1, H2, H3 alone; FIC of antibiotics=MIC of antibiotic in combination with peptide/MIC of antibiotic alone; FICI = FIC of H1, H2, H3+ antibiotic, respectively. The result of interaction between two antimicrobial drugs was determined according to: FICI ≤ 0.5 refers to synergy, 0.5 < FICI ≤ 1 refers to additivity, 1 < FICI ≤ 4 refers to indifference, and FICI > 4 is defined as antagonism (Tsuji and Rybak [2006]).

[6] = tested on: S. aureus ATCC43300; assay: Effect of pH on activity (MIC); format: cell-based, Staphylococcus aureus; details: then MIC assay
Method: as §1, §2

[7] = tested on: S. aureus ATCC43300; assay: Effect of temperature on activity (MIC); format: cell-based, Staphylococcus aureus; details: then MIC assay
Method: as §1, §2

[8] = conventional antibiotics; ref Pankuch and Appelbaum [2009b]; Pankuch et al. [2003]; Watanabe et al. [1997]; cited from earlier work
Description: The PAE is a very important pharmacodynamics parameter in choosing of antibiotic dosage regimens in clinical use (Pankuch and Appelbaum [2009a]).

Compound: CC[C@H](C)[C@@H]1NC(=O)[C@H](CO)NC(=O)[C@H](CCCCN)NC(=O)[C@@H]2CSSC[C@@H](C(=O)N[C@@H](Cc3ccc(O)cc3)C(=O)O)NC(=O)[C@H](CCCCN)NC(=O)[C@@H]3CSSC[C@H](NC(=O)[C@H](CCCNC(=N)N)NC(=O)[C@H](CC(C)C)NC(=O)[C@H](CC(=O)O)NC(=O)[C@H](CC(=O)O)NC(=O)[C@H](CCC(=O)O)NC(=O)[C@H](CC(N)=O)NC(=O)[C@H](Cc4c[nH]c5ccccc45)NC(=O)[C@@H]4CCCN4C(=O)CNC(=O)[C@H](CC(N)=O)NC(=O)[C@@H](NC(=O)CNC(=O)[C@H](Cc4ccccc4)NC(=O)CN)CSSC[C@H](NC(=O)[C@H](Cc4ccc(O)cc4)NC(=O)CNC(=O)CNC(=O)[C@H](CCCCN)NC(=O)[C@H](Cc4ccc(O)cc4)NC(=O)CNC(=O)[C@H](CCCCN)NC1=O)C(=O)N[C@@H](C)C(=O)N[C@@H](CCCCN)C(=O)NCC(=O)NCC(=O)N[C@@H](Cc1ccccc1)C(=O)N[C@@H](C(C)C)C(=O)N3)C(=O)N[C@@H](CCCCN)C(=O)N[C@@H](CC(N)=O)C(=O)N[C@@H](Cc1c[nH]cn1)C(=O)N2 [H1] (H-GFGCNGPWNEDDLRCKNHCKSIKGYKGGYCAKGGFVCKCY-OH; disulfide 4-30, 15-37, 19-39; N-terminus and C-terminus assumed)
- incubation time after which regrowth occurred ([1]; 1× MIC): 8 h
- time for bacterial counts to decrease to 2 log10 CFU/ml (a 99.9% reduction) ([1]; 1× MIC): 6 h
- incubation time after which regrowth occurred ([1]; 2× MIC): 12 h
- bacterial counts at 24 h after regrowth ([1]; 2× MIC, 24 h): 3.40 log10 CFU/ml
- time for bacterial counts to decrease to 2 log10 CFU/ml (a 99.9% reduction) ([1]; 2× MIC): 1.5 h
- time for bacterial counts to decrease to 2 log10 CFU/ml (a 99.9% reduction) ([1]; 4× MIC): 1 h
- MIC after Proteinase K ([2]; proteinase K (pH 7.0)): 0.057 µM (≈ 0.251 µg/mL)
- MIC after Trypsin ([2]; trypsin (pH 8.0)): 0.057 µM (≈ 0.251 µg/mL)
- PAE ([3]; 1× MIC): 0.90 ± 0.04 h
- PAE ([3]; 2× MIC): 2.94 ± 0.07 h
- MIC in 50 mM NaCl ([4]; incubated in 50 mM sodium chloride solution): 0.057 µM (≈ 0.251 µg/mL)
- MIC in 100 mM NaCl ([4]; incubated in 100 mM sodium chloride solution): 0.057 µM (≈ 0.251 µg/mL)
- MIC in 200 mM NaCl ([4]; incubated in 200 mM sodium chloride solution): 0.057 µM (≈ 0.251 µg/mL)
- MIC in 300 mM NaCl ([4]; incubated in 300 mM sodium chloride solution): 0.057 µM (≈ 0.251 µg/mL)
- MIC in 400 mM NaCl ([4]; incubated in 400 mM sodium chloride solution): 0.057 µM (≈ 0.251 µg/mL)
- MIC in 500 mM NaCl ([4]; incubated in 500 mM sodium chloride solution): 0.057 µM (≈ 0.251 µg/mL)
- MICc (MIC of the most effective combination) ([5]; in combination with ampicillin): 0.014 µM
- MICc (MIC of the most effective combination) ([5]; in combination with ciprofloxacin): 0.028 µM
- MICc (MIC of the most effective combination) ([5]; in combination with rifampicin): 0.056 µM
- MICc (MIC of the most effective combination) ([5]; in combination with vancomycin): 0.056 µM
- MIC ([5]; drug alone): 0.056 µM
- MIC after incubation at pH2 ([6]; pH 2, 37 °C for 4 h): 0.057 μM
- MIC after incubation at pH4 ([6]; pH 4, 37 °C for 4 h): 0.057 μM
- MIC after incubation at pH6 ([6]; pH 6, 37 °C for 4 h): 0.057 μM
- MIC after incubation at pH8 ([6]; pH 8, 37 °C for 4 h): 0.057 μM
- MIC after incubation at 4 °C ([7]; 1 h at 4 °C in deionized water): 0.057 µM (≈ 0.251 µg/mL)
- MIC after incubation at 20 °C ([7]; 1 h at 20 °C in deionized water): 0.057 µM (≈ 0.251 µg/mL)
- MIC after incubation at 40 °C ([7]; 1 h at 40 °C in deionized water): 0.057 µM (≈ 0.251 µg/mL)
- MIC after incubation at 60 °C ([7]; 1 h at 60 °C in deionized water): 0.057 µM (≈ 0.251 µg/mL)
- MIC after incubation at 80 °C ([7]; 1 h at 80 °C in deionized water): 0.057 µM (≈ 0.251 µg/mL)

Compound: NCC[C@H](O)C(=O)N[C@@H]1C[C@H](N)[C@@H](O[C@H]2O[C@H](CN)CC[C@H]2N)[C@H](O)[C@H]1O[C@H]1O[C@H](CO)[C@@H](O)[C@H](N)[C@H]1O [arbekacin]
- PAE [8]: 3.0 to 3.2 h

- MIC ([5]; Staphylococcus aureus, ATCC43300): 0.019 µM
- MICc (MIC of the most effective combination) ([5]; in combination with H1): 0.019 µM
- MICc (MIC of the most effective combination) ([5]; in combination with H2): 0.019 µM
- MICc (MIC of the most effective combination) ([5]; in combination with H3): 0.038 µM
Compound: CO[C@H]1/C=C/O[C@@]2(C)Oc3c(C)c(O)c4c(O)c(c(/C=N/N5CCN(C)CC5)c(O)c4c3C2=O)NC(=O)/C(C)=C\C=C\[C@H](C)[C@H](O)[C@@H](C)[C@@H](O)[C@@H](C)[C@H](OC(C)=O)[C@@H]1C [rifampicin]
- FIC ([5]; in combination with H1): 1
- FIC ([5]; in combination with H2): 1
- FIC ([5]; in combination with H3): 2

Compound: CN(C)c1cc(NC(=O)CNC(C)(C)C)c(O)c2c1C[C@H]1C[C@H]3[C@H](N(C)C)C(O)=C(C(N)=O)C(=O)[C@@]3(O)C(O)=C1C2=O [tigecycline]
- PAE [8]: 3.2 h

Compound: daptomycin
- PAE [8]: 2.0 h
